Results on five molecules are retold here after ChEMBL document CHEMBL3044939, “Insect antifeedant and growth regulating activities of quassinoids from Samadera indica” (2001).

Common to all, as to assay type: functional
Assay [1] has as its system Spodoptera litura. As to the kind of experiment: Growth regulating activity of Spodoptera litura assessed as third-instar time at 0.5 ug/cm'2 of castor leaf area after 24 hr.
Assay [2] relates to Spodoptera litura. As to the kind of experiment: Growth regulating activity of Spodoptera litura assessed as fifth-instar time at 0.5 ug/cm'2 of castor leaf area after 24 hr.
The subject of assay [3] is Spodoptera litura. Put plainly: Antifeedant activity against Spodoptera litura at 5 ug/cm'2 of castor leaf area relative to control.
Assay [4] concerns Spodoptera litura. Put plainly: Antifeedant activity against Spodoptera litura at 0.5 ug/cm'2 of castor leaf area relative to control.
Assay [5] has as its system Spodoptera litura. Put plainly: Growth regulating activity of Spodoptera litura assessed as fourth-instar time at 0.5 ug/cm'2 of castor leaf area after 24 hr.
For assay [6], the system named is Spodoptera litura. As to the kind of experiment: Growth regulating activity of Spodoptera litura assessed as total larval time at 0.5 ug/cm'2 of castor leaf area after 24 hr.
The test system of assay [7] is Spodoptera litura. As to the kind of experiment: Antifeedant activity against Spodoptera litura at 1 ug/cm'2 of castor leaf area relative to control.
In assay [8] the test system is Spodoptera litura. As to the kind of experiment: Insecticidal activity against Spodoptera litura assessed as pupal mortality at 0.5 ug/cm'2 of castor leaf area after 24 hr.
For assay [9], the system named is Spodoptera litura. Put plainly: Growth regulating activity of Spodoptera litura assessed as sixth-instar time at 0.5 ug/cm'2 of castor leaf area after 24 hr.
For assay [10], the system named is Spodoptera litura. As to the kind of experiment: Growth regulating activity of Spodoptera litura assessed as pupal time at 0.5 ug/cm'2 of castor leaf area after 24 hr.

`CC1=C[C@H](O)[C@@H](O)[C@@]2(C)[C@H]1CC(=O)[C@@]13CO[C@]4(C)[C@@H](OC(=O)[C@@H]41)[C@H](O)[C@@H]32` [SAMADERINS C]: the Time worked out at 2.7 days in the assay with Spodoptera litura [1]; 3.8 days in the assay with Spodoptera litura [2]; 4.4 days with Spodoptera litura [5]; 15.3 days in the assay with Spodoptera litura [6]; 4.4 days with Spodoptera litura [9]; 9.7 days in the assay with Spodoptera litura [10]. Besides, the Activity was determined as 55.3% in the assay on Spodoptera litura [3], 15% in the assay on Spodoptera litura [4], 16.1% with Spodoptera litura [7] and 54.1% with Spodoptera litura [8].

Turning to `C/C=C(\C)C(=O)O[C@H]1C[C@@H](OC(C)=O)[C@@]2(C(=O)OC)CO[C@H]3[C@@H](O)[C@@](C)([C@]45O[C@@]4(C)[C@@H]4C[C@H]5O[C@@H]5OC=C[C@@]54O)[C@H]4[C@]1(CO[C@]4(O)C(=O)OC)[C@@H]32` [AZADIRACHTIN A], the Time with Spodoptera litura [1] worked out at 3.2 days; with Spodoptera litura [2], 3.3 days; with Spodoptera litura [5], 4.1 days; in the assay on Spodoptera litura [6] it was 16.1 days; in the assay with Spodoptera litura [9], 5.4 days; with Spodoptera litura [10], 9.3 days. Also, the Activity in the assay with Spodoptera litura [3] is recorded as 95.4%; with Spodoptera litura [4], 91.6%; with Spodoptera litura [7], 94.8%; in the assay on Spodoptera litura [8], 62.5%.

For the molecule `CC1=CC(=O)[C@@H](O)[C@@]2(C)[C@H]1[C@@H](O)[C@H]1OC(=O)C[C@]3(O)[C@]14CO[C@@]3(C)[C@@H](O)[C@H](O)[C@H]24` [INDAQUASSIN C], the Time with Spodoptera litura [1] came out at 2.3 days; in the assay with Spodoptera litura [2], 3.4 days; in the assay on Spodoptera litura [5] it was 3.8 days; with Spodoptera litura [6], 14.2 days; in the assay with Spodoptera litura [9], 4.9 days; with Spodoptera litura [10] it was 8.5 days. Also, the Activity was 62.5% in the assay on Spodoptera litura [3], 47.6% with Spodoptera litura [4], 48.9% with Spodoptera litura [7] and 10.5% in the assay on Spodoptera litura [8].

Take `CC1=CC(=O)[C@@H](O)[C@@]2(C)[C@H]1CC(=O)[C@@]13CO[C@]4(C)[C@@H](OC(=O)[C@@H]41)[C@H](O)[C@@H]32` [SAMADERINS B]: the Time was 3.1 days in the assay with Spodoptera litura [1]; 3.4 days with Spodoptera litura [2]; 3.8 days in the assay with Spodoptera litura [5]; 15.6 days in the assay with Spodoptera litura [6]; 5.1 days in the assay with Spodoptera litura [9]; 9.3 days in the assay with Spodoptera litura [10]. The Activity in the assay with Spodoptera litura [3] is 63.1%; with Spodoptera litura [4] it was 16.3%; in the assay with Spodoptera litura [7], 25.9%; in the assay on Spodoptera litura [8], 37.5%.

For `CC1=CC(=O)[C@@]2(C)C1=CC(=O)[C@@]13CO[C@]4(C)[C@@H](OC(=O)[C@@H]41)[C@H](O)[C@H]23` [SAMADERINS A], the Time in the assay with Spodoptera litura [1] turned out to be 2.9 days; in the assay with Spodoptera litura [2], 3.6 days; with Spodoptera litura [5] it was 3.6 days; in the assay with Spodoptera litura [6], 15.1 days; in the assay on Spodoptera litura [9] it was 4.8 days; in the assay with Spodoptera litura [10] it was 8.8 days. For the same molecule, the Activity was found to be 21.1% in the assay on Spodoptera litura [3], 18.9% in the assay with Spodoptera litura [4], 16.2% with Spodoptera litura [7] and 7.4% in the assay on Spodoptera litura [8].
